# Tests used:
# [1] = Metabolic effects, 1-year lurasidone therapy; assay type: in vivo, human; details: 40-120 mg/day, 1-year study, patients with schizophrenia
# Method: Changes in weight, total cholesterol, triglycerides, fasting glucose, and prolactin were measured and compared to baseline levels.
# 5-HT7 receptor = 5-HT7 receptor (Homo sapiens, UniProt P34969); details: background statement; cited from earlier work
# [2] = tested on: patients with schizophrenia; assay: Quality of Well-Being (QWB-SA), 6-week placebo-controlled study; assay type: in vivo, human; details: 80 mg and 160 mg lurasidone per day, 6 weeks
# Method: Quality of Well-Being (QWB) was measured according to the procedures well-established in the art. The QWB was a self administered questionnaire (QWB-SA), where the combined score ranged from 0 to 1.0 (death to optimal functioning). A patient diagnosed with schizophrenia answered five sections assessing the presence/absence of 19 chronic symptoms or problems, physical symptoms, and mental health symptoms and behaviors as well as an assessment of a person's mobility, physical activity and social activity including completion of role expectations. […] In addition, the relationship between other indicators of therapy outcome, for example, cognitive composite scores, PANSS scores, Negative Symptom Assessment Scale scores (NSA), and Montgomery-Asberg Depression Rating Scale scores (MADRS), was evaluated in relation to quality of life, as assessed by the QWB-SA. […] In addition, partial correlations were found between improvement of QWB-SA and PANSS scores, QWB-SA and MADE scores, QWB-SA and NSA scores, and QWB-SA and cognitive composite scores.
# Dopamine D1 receptor = biological target: T1, Dopamine D1 receptor (Rattus norvegicus, UniProt P18901); assay: In vitro receptor binding, dopamine D1 (rat); details: read-out: Binding Affinities (Ki; nM) Dopamine D1
# T1 construct: Membranes from male Wistar rat brain tissues; from tissue; host or cells: male Wistar rat brain
# T1 sequence (P18901 whole entry): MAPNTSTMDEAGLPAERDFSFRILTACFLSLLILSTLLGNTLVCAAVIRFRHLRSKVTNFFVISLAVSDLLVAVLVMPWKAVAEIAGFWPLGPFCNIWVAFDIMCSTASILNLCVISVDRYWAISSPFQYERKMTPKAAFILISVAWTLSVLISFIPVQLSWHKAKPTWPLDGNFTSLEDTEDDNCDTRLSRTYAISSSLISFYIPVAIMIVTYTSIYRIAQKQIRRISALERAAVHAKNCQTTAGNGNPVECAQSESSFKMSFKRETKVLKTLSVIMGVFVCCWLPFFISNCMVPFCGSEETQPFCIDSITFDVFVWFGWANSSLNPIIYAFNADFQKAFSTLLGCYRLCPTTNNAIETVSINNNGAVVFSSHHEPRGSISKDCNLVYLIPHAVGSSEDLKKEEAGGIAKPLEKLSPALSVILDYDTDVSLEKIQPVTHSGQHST
# Method: (§1) In vitro binding studies were carried out according to the procedures well-established in the art. Membranes from male Wistar rat brain tissues or cells expressing cloned human receptors were prepared under assay conditions summarized in Ishibashi, T. et al. (Journal of Pharmacology and Experimental Therapeutics (2010)). Functional assays were carried out to analyze the binding affinity and effect on receptor function for dopamine D1-D4 receptor subtypes, serotonin 5-HT1A, 5-HT2A, 5-HT2C, 5-HT6, 5-HT7, norepinephrine α1, α2A, α2C, histamine H1 receptors, and muscarinic M1 receptors.
# Histamine H1 receptor [3] = biological target: Histamine H1 receptor (Cavia porcellus, UniProt P31389); assay: In vitro receptor binding, histamine H1 (guinea pig)
# Histamine H1 receptor, sequence (P31389 whole entry): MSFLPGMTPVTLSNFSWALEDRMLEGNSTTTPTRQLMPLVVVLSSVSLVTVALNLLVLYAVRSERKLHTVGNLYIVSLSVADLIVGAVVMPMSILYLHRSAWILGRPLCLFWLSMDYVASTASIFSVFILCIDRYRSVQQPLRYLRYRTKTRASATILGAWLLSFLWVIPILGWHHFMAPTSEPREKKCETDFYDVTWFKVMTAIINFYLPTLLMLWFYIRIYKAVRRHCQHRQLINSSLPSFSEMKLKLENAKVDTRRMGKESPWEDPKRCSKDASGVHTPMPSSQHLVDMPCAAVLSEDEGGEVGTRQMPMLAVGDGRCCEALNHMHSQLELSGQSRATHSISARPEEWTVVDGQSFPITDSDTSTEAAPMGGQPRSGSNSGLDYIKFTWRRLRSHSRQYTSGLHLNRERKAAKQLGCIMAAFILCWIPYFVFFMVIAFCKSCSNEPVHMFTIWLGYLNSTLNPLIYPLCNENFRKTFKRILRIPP
# 5-HT2A receptor = 5-HT2A receptor (Homo sapiens, UniProt P28223); details: background statement; cited from earlier work
# 5-HT2A receptor, sequence (P28223 whole entry): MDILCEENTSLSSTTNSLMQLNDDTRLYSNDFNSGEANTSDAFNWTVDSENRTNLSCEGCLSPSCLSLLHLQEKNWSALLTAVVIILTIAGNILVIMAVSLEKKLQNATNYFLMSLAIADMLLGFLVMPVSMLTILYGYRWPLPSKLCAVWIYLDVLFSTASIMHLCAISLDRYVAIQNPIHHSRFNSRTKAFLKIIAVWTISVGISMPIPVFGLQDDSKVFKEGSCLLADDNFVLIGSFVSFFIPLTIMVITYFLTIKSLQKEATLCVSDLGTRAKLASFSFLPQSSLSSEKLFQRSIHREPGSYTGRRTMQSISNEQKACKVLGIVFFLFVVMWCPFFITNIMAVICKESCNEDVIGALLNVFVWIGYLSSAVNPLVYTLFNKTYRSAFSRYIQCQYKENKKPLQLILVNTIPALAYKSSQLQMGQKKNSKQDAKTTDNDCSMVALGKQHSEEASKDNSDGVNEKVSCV
# [4] = biological target: T2, Serotonin 5-HT2c receptor (Sus scrofa, UniProt K7GSR7); assay type: binding, porcine
# T2 sequence (K7GSR7 1-457): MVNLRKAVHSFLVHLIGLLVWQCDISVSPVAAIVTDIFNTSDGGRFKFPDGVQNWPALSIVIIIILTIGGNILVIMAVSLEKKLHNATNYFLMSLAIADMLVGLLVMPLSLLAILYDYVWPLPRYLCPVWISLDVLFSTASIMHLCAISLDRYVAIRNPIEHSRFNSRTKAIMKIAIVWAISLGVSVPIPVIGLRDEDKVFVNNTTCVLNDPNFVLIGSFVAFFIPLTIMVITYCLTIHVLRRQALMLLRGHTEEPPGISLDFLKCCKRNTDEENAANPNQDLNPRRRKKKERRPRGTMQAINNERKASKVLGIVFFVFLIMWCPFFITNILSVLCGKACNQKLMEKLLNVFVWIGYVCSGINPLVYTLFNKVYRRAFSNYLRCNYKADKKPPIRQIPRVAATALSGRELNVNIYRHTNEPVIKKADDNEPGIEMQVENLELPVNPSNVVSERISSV
# Method: as §1
# [5] = tested on: patients with bipolar I depression; assay: Lurasidone adjunctive to lithium or divalproex for bipolar I depression, 6-week study, efficacy; assay type: in vivo, human; details: lurasidone 20-120 mg/day adjunctive to lithium or divalproex, 6 weeks
# Method: Changes from DB baseline (DB BL) in MADRS total score and secondary efficacy outcomes were analyzed using either mixed model for repeated measures (MMRM) or analysis of covariance, last observation carried forward (ANCOVA-LOCF), or logistic regression.
# Therapeutic blood levels of Li or VPA had to be maintained for ≧28 days prior to randomization.
# The total duration of treatment was 6 weeks.
# A mixed model for repeated measures (MMRM) was utilized using the ITT population. The results are depicted in FIG. 16. The MMRM model included treatment, visit, pooled center, stratification variable (lithium or divalproex), baseline MADRS total score, and the treatment-by-visit interactions. An unstructured covariance matrix was used for the within-subject correlation. Missing observations were not imputed for this analysis.
# Efficacy was also evaluated by measuring the change from baseline in CGI-BP-S score (depression) and the change from baseline in SDS total score. The results are depicted in FIGS. 17 and 18. CGI-BP-S was analyzed using the MMRM method described above, and SDS was analyzed using an analysis of covariance (ANCOVA) model with treatment, visit, pooled center, stratification variable (lithium or divalproex) and the baseline value of SDS. The ITT population was used for the analyses.
# [6] = Lurasidone monotherapy for bipolar I depression, 6-week study, safety and tolerability; assay type: in vivo, human
# [7] = biological target: Norepinephrine α1 receptor; assay: In vitro receptor binding, norepinephrine α1 (rat)
# histamine H1 receptor [8] = biological target: histamine H1 receptor (Homo sapiens, UniProt P35367); details: background statement; cited from earlier work
# histamine H1 receptor, sequence (P35367 whole entry): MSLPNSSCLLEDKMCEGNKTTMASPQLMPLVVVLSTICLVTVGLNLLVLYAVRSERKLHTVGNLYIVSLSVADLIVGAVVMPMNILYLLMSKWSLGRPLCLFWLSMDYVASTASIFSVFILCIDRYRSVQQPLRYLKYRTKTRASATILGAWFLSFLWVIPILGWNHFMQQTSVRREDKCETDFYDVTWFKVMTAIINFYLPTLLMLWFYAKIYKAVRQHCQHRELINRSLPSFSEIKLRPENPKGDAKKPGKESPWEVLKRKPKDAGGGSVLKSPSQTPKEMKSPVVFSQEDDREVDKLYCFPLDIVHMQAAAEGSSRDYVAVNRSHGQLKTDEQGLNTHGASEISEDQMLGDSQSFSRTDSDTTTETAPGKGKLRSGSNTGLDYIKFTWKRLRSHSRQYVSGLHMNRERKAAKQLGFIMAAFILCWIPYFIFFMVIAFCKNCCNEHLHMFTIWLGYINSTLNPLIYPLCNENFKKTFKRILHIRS
# [9] = Lurasidone 20-60 mg, listed as LUR
# [10] = Lurasidone 80-120 mg, listed as LUR
# 5-HT7 receptor, sequence (P34969 whole entry): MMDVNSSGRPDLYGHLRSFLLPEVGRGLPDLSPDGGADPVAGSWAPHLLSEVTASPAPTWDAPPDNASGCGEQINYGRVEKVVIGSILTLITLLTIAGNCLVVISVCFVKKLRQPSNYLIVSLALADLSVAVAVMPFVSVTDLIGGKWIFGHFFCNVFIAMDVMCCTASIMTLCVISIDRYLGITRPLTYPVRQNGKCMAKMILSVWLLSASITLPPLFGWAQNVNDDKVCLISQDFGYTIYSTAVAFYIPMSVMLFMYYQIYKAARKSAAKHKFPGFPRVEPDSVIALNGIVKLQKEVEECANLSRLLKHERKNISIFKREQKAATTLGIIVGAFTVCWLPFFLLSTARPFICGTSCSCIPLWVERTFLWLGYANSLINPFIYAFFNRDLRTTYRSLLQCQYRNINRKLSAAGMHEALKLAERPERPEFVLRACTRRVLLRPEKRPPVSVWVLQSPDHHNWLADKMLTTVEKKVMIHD
structure (smiles),measurement,setting,value
O=C1[C@@H]2[C@H]3CC[C@H](C3)[C@@H]2C(=O)N1C[C@@H]1CCCC[C@H]1CN1CCN(c2nsc3ccccc23)CC1 [Lurasidone],"changes in mean weight, lipids, and prolactin from baseline",[1],no adverse changes
same,reported affinity for 5-HT7 receptor,5-HT7 receptor,high affinity
same,QWB-SA score compared to placebo (endpoint ANCOVA),[2],significant improvement
same,Ki,Dopamine D1 receptor,262 nM
same,Ki,"Histamine H1 receptor [3]; guinea pig, read-out: Binding Affinities (Ki; nM) Histamine H1",> 1000 nM
same,binding affinity for histamine H1 receptor (in words),Histamine H1 receptor [3]; summary of Table 2,low or negligible binding affinity
same,reported affinity for 5-HT2A receptor,5-HT2A receptor,high affinity
same,Ki,"[4]; porcine, read-out: Binding Affinities (Ki; nM) Serotonin 5-HT2c",415 nM
same,binding affinity for serotonin 5-HT2C receptor (in words),[4]; summary of Table 2,low or negligible binding affinity
same,depressive symptoms compared to placebo,[5],significantly reduced depressive symptoms
same,"self-rated measures of social, family, and occupational function as well as quality of life",[5],significantly improved
same,"Adverse Events: Akathisia, incidence",[6]; Lurasidone 20-60 mg,13 (7.9%)
same,"Adverse Events: Dizziness, incidence",[6]; Lurasidone 20-60 mg,4 (2.4%)
same,"Adverse Events: Headache, incidence",[6]; Lurasidone 20-60 mg,23 (14.0%)
same,"Adverse Events: Insomnia, incidence",[6]; Lurasidone 20-60 mg,8 (4.9%)
same,"Adverse Events: Nausea, incidence",[6]; Lurasidone 20-60 mg,17 (10.4%)
same,"Adverse Events: Sedation, incidence",[6]; Lurasidone 20-60 mg,5 (3.0%)
same,"Adverse Events: Somnolence, incidence",[6]; Lurasidone 20-60 mg,7 (4.3%)
same,Cholesterol (mg/dL) median change (at LOCF endpoint),[6]; Lurasidone 20-60 mg,0.0 mg/dL
same,Glucose (mg/dL) median change (at LOCF endpoint),[6]; Lurasidone 20-60 mg,-1.0 mg/dL
same,Triglycerides (mg/dL) median change (at LOCF endpoint),[6]; Lurasidone 20-60 mg,+3.0 mg/dL
same,Weight (kg) mean change (at LOCF endpoint),[6]; Lurasidone 20-60 mg,+0.56 kg
same,"Adverse Events: Akathisia, incidence",[6]; [9],7.9%
same,"Adverse Events: Headache, incidence",[6]; [9],14.0%
same,"Adverse Events: Nausea, incidence",[6]; [9],10.4%
same,"Adverse Events: Akathisia, incidence",[6]; Lurasidone 80-120 mg,18 (10.8%)
same,"Adverse Events: Dizziness, incidence",[6]; Lurasidone 80-120 mg,10 (6.0%)
same,"Adverse Events: Headache, incidence",[6]; Lurasidone 80-120 mg,15 (9.0%)
same,"Adverse Events: Insomnia, incidence",[6]; Lurasidone 80-120 mg,11 (6.6%)
same,"Adverse Events: Nausea, incidence",[6]; Lurasidone 80-120 mg,17.4%
same,"Adverse Events: Sedation, incidence",[6]; Lurasidone 80-120 mg,12 (7.2%)
same,"Adverse Events: Somnolence, incidence",[6]; Lurasidone 80-120 mg,11 (6.6%)
same,Cholesterol (mg/dL) median change (at LOCF endpoint),[6]; Lurasidone 80-120 mg,-3.0 mg/dL
same,Glucose (mg/dL) median change (at LOCF endpoint),[6]; Lurasidone 80-120 mg,0.0 mg/dL
same,Triglycerides (mg/dL) median change (at LOCF endpoint),[6]; Lurasidone 80-120 mg,-2.0 mg/dL
same,Weight (kg) mean change (at LOCF endpoint),[6]; Lurasidone 80-120 mg,+0.02 kg
same,"Adverse Events: Akathisia, incidence",[6]; [10],10.8%
same,"Adverse Events: Headache, incidence",[6]; [10],9.0%
same,"Adverse Events: Nausea, incidence",[6]; [10],17.4%
same,discontinuation rates due to adverse events,[6]; lurasidone 20 to 60 mg/day,7%
same,discontinuation rates due to adverse events,[6]; lurasidone 80 to 120 mg/day,6%
same,"changes in weight, lipids and measures of glycemic control","[6]; monotherapy, 20-60 and 80-120 mg/day, 6 weeks",Minimal changes
same,Ki,"[7]; rat, read-out: Binding Affinities (Ki; nM) Norepinephrine α1",47.9 nM
same,binding affinity for α1 adrenoreceptor (in words),[7]; summary of Table 2,low or negligible binding affinity
same,reported affinity for histamine H1 receptor,histamine H1 receptor [8],minimal to no affinity

# From US20140350029A1 (DAINIPPON SUMITOMO PHARMA CO., LTD., priority 2011, published 2014)
